Where “and” joins values, the source holds several entries; their conditions need not be identical. Equal values may be shown once. Read-outs that look alike come from different tables or passages of the source.
Tests used:
[1] = Primary particle size distribution by laser diffraction after break up of spherical agglomerates; assay type: physicochemical; conditions: primary particles; for PSD d (0.1), Mean result / PSD d (0.5), Mean result: mean of 10 acquisitions
Experimental: The primary particle size distribution results are produced by means of a Malvern 2000 laser diffraction equipment by the analysis of the primary particles in suspension.
The particle size distribution laser diffraction measures were performed using a Malvern Mastersizer 2000 equipped with a Hydro 2000S cell for the wet suspension of the Timapiprant primary particles. The spherical agglomerates obtained according to the Examples 3 and 5, were dispersed in water by means of 10 minutes sonication and then added to the cell, previously filled with water, until an obscuration within 5-10% was obtained. The stirring rate was set at 1500 rpm and each of the suspensions produced were analysed by 10 acquisitions, the results are reported in Tables 1 and 2.

[2] = Specific surface area (SSA) by BET nitrogen adsorption; assay type: physicochemical
Experimental: The specific surface areas (SSA) of spherical agglomerates of timapiprant obtained according to Examples 3, 5,7 and the micronized timapiprant were measured was determined by BET nitrogen adsorption using the TriStar of Micromeritics apparatus according to following parameters: • Isotherm, Adsorbing/Desorbing Run: 0 to 1 p/p0 • Vials: ⅜ Inch, Degasing Pre-analysis: 2 hours at 40° C., Nitrogen as adsorbate • Preparation: Evacuation Rate 10 mmHg/s; Unrestricted evacuation from 5 mmHg • Vacuum setpoint: 10 mmHg, Evacuation time: 1 hour • Leak Test Duration: 120 s, Outgas Test Duration: 180 s • Measure p0 at intervals during the analysis, Enter the analysis bath temperature: […]77 kelvin • Equilibration Interval: 5 s; Minimum Equilibration Delay at p/p0>=0.995 per 600 s.

[3] = Flowability of blend material with excipients; assay type: physicochemical; conditions: for Flowability (s/100 g): blend material of API with excipients of Table 3; for Flow properties of blend: blend material of API with excipients
Experimental: The spherical agglomerates of timapiprant or the micronized timapiprant, together with the microcrystalline cellulose, the croscarmellose sodium, the poloxamer, the sodium lauryl sulphate and the colloidal silicon dioxide in the above amounts, are sieved in a sieve of 1.2 mm. The lactose monohydrate is then added, and the resulting mixture is blended in a free fall blender for at least 15 minutes. The magnesium stearate is added to the obtained mixture which is further blended in the free fall blender for additional 3 minutes.

[4] = system: human Th2 lymphocytes and eosinophils; conditions: cited from earlier work
[5] = system: patients with atopic eosinophilic asthma; conditions: cited from earlier work
[6] = biological target: T1, prostaglandin D2 receptor (CRTH2) (Homo sapiens, UniProt Q9Y5Y4); conditions: cited from earlier work
T1 sequence (Q9Y5Y4 1-395): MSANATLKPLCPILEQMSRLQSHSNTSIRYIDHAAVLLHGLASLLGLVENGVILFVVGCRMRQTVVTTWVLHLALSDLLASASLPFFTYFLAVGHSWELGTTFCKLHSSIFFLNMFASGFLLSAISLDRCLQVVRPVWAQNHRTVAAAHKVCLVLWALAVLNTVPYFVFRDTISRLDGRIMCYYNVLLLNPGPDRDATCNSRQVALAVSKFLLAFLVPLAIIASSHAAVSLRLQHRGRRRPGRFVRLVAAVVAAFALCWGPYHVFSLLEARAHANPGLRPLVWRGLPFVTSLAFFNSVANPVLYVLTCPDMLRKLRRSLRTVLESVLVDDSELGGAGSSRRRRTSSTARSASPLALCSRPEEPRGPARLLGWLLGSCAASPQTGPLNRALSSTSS

[7] = agglomerates dispersed in water by 10 minutes sonication, single acquisition

For `Cc1c(Cc2ccc3ccccc3n2)c2cc(F)ccc2n1CC(=O)O` [Example 3, (5-fluoro-2-methyl-3-quinolin-2-yl-methyl-indol-1-yl)acetic acid], the “PSD d (0.1)” value [1, 7] was 0.28 μm, the “PSD d (0.5)” value [1, 7] was 0.56 μm and the “PSD d (0.1), Mean result” value [1] was 0.28 μm. The “PSD d (0.5), Mean result” value [1] was 0.56 μm and the “SSA (m^2/g)” value ([2]; listed as Spherical agglomerates of timapiprant of Example 3) was 13.1 m^2/g.

With `Cc1c(Cc2ccc3ccccc3n2)c2cc(F)ccc2n1CC(=O)O` [Example 5, (5-fluoro-2-methyl-3-quinolin-2-yl-methyl-indol-1-yl)acetic acid] the “PSD d (0.5)” value [1, 7] was 0.64 μm, the “PSD d (0.1), Mean result” value [1] was 0.31 μm and the “PSD d (0.5), Mean result” value [1] was 0.64 μm. For the same compound, the “Flowability (s/100 g)” value ([3]; listed as Spherical agglomerates of timapirpant) was 4 sec s/100 g, the “Flow properties of blend” value ([3]; listed as spherical agglomerates of timapiprant) was “good flowability” and the “SSA (m^2/g)” value ([2]; listed as Spherical agglomerates of timapiprant of Example 5) was 10.1 m^2/g.

With `Cc1c(Cc2ccc3ccccc3n2)c2cc(F)ccc2n1CC(=O)O` [Example 7, (5-fluoro-2-methyl-3-quinolin-2-yl-methyl-indol-1-yl)acetic acid] the “SSA (m^2/g)” value ([2]; listed as Spherical agglomerates of timapiprant of Example 7) was 15.5 m^2/g.

With `Cc1c(Cc2ccc3ccccc3n2)c2cc(F)ccc2n1CC(=O)O` [Micronized Timapiprant, reference compound] the “Flow properties of blend” value [3] was “very poor flow properties”, the “Flowability (s/100 g)” value [3] was “∞” and the “SSA (m^2/g)” value [2] was 8.0 m^2/g and 7.8 m^2/g. The “SSA (m^2/g)” value ([2]; listed as micronized timapiprant) was “less than 8.5 m^2/g”.

For `Cc1c(Cc2ccc3ccccc3n2)c2cc(F)ccc2n1CC(=O)O` [timapiprant], the “Inhibition of mast cell-dependent activation” value [4] is listed as “inhibits mast cell-dependent activation of both human Th2 lymphocytes and eosinophils”, the “Clinical efficacy” value [5] is listed as “effective in reducing airway inflammation and improving lung function and quality of life” and the “CRTH2 antagonist activity” value [6] is listed as “potent, selective, and orally active prostaglandin D2 receptor (CRTH2) antagonist”.

From patent US20220184059A1, “PROCESS FOR PREPARING SPHERICAL AGGLOMERATES OF TIMAPIPRANT” (Chiesi Farmaceutici S.p.A., priority 2018, published 2022)
